Here are results for 27 compounds from patent US20240092758A1, “IMIDAZOLO INDAZOLE COMPOUNDS AS JAK INHIBITORS” (Theravance Biopharma R&D IP, LLC, priority 2021, published 2024).

The target of one experiment is TYK2 (Homo sapiens (Human), UniProt P29597). Kind of experiment: Biochemical JAK kinase assay (LanthaScreen), Tyk2. Conditions: read-out: Tyk2 pKi (converted). The procedure: A panel of four LanthaScreen JAK biochemical assays (JAK1, 2, 3 and Tyk2) were carried in a common kinase reaction buffer (50 mM HEPES, pH 7.5, 0.01% Brij-35, 10 mM MgCl2, and 1 mM EGTA). Recombinant GST-tagged JAK enzymes and a GFP-tagged STAT1 peptide substrate were obtained from Life Technologies.
Sequence of TYK2 (P29597 whole entry): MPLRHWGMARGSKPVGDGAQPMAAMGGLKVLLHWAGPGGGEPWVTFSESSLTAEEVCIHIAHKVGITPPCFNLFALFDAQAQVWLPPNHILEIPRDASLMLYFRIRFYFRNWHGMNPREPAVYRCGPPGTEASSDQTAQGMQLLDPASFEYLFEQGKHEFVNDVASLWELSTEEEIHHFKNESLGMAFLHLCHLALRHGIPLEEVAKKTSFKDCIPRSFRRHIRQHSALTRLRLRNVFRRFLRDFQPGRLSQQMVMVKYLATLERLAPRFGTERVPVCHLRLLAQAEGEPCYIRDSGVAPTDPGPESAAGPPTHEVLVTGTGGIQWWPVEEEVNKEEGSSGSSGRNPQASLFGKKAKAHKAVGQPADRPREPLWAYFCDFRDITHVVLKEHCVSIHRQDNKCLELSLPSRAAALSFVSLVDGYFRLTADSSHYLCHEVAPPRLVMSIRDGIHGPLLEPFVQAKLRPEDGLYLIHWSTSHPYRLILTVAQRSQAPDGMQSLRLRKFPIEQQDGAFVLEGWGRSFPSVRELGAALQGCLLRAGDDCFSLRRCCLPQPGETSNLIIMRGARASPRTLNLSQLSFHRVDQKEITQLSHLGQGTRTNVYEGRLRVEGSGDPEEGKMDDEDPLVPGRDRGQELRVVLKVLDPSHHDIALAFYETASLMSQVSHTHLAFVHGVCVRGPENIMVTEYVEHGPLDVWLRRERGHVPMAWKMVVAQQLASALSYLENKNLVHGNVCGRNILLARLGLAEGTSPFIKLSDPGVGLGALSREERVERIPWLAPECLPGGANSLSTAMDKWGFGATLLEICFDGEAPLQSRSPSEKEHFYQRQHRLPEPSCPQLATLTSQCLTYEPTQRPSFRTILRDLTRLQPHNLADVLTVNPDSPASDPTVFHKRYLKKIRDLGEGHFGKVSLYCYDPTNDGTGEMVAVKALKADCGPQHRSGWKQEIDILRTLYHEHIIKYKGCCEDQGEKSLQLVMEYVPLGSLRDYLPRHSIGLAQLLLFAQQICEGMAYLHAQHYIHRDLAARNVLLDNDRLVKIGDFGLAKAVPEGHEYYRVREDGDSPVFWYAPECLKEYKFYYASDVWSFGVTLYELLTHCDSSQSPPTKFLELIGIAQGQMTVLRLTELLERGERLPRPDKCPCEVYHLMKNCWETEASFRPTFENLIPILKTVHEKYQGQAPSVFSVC
Serially diluted compounds were pre-incubated with each of the four JAK enzymes and the substrate in white 384-well microplates (Corning) at ambient temperature for 1 h. ATP was subsequently added to initiate the kinase reactions in 10 μL total volume, with 1% DMSO. The final enzyme concentrations for JAK1, 2, 3 and Tyk2 are 4.2 nM, 0.1 nM, 1 nM, and 0.25 nM respectively; the corresponding Km ATP concentrations used are 25 μM, 3 μM, 1.6 μM, and 10 μM; while the substrate concentration is 200 nM for all four assays. Kinase reactions were allowed to proceed for 1 hour at ambient temperature before a 10 μL preparation of EDTA (10 mM final concentration) and Tb-anti-pSTAT1 (pTyr701) antibody (Life Technologies, 2 nM final concentration) in TR-FRET dilution buffer (Life Technologies) was added. The plates were allowed to incubate at ambient temperature for 1 h before being read on the EnVision reader (Perkin Elmer). Emission ratio signals (520 nm/495 nm) were recorded and utilized to calculate the percent inhibition values based on DMSO and background controls.
For dose-response analysis, percent inhibition data were plotted vs. compound concentrations, and IC50 values were determined from a 4-parameter robust fit model with the Prism software (GraphPad Software). Results were expressed as pIC50 (negative logarithm of IC50) and subsequently converted to pKi (negative logarithm of dissociation constant, Ki) using the Cheng-Prusoff equation.
Test compounds having a lower Ki value or higher pKi value in the four JAK assays show greater inhibition of JAK activity.
(Time-resolved FRET reads energy transfer from a long-lived donor to a nearby acceptor.)

Another experiment addresses JAK1 (Homo sapiens (Human), UniProt P23458). Nature of the experiment: Biochemical JAK kinase assay (LanthaScreen), JAK1. Conditions: for Ki: read-out: JAK1 pKi (converted). Put shortly:
(§1)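 LanthaScreen format: phospho-STAT1 (pTyr701) detected with 2 nM Tb antibody after 10 mM EDTA quench. Kinase step used Km-level ATP and 200 nM STAT1 peptide, 1 h at ambient after 1 h pre-incubation. Inhibition fitted to IC50, reported as pKi.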

Experiment [1] concerns IL-13 induced STAT6 phosphorylation in BEAS-2B human lung epithelial cells. Kind of experiment: Cellular JAKI potency assay (BEAS-2B). Conditions: Homo sapiens, BEAS-2B, BEAS-2B cells, read-out: BEAS2B pIC50 (converted). Type of experiment: cell-based. In outline:
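AlphaLISA SureFire detection of Tyr641 pSTAT6 in lysates gave IC50s (4-parameter fit, expressed as pIC50). Cells: human BEAS-2B, exposed 1 h at 37 °C to compound dose series at 0.1% DMSO, then 30 min to IL-13 added at 80 ng/mL in HEPES-buffered HBSS with BSA.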

A further experiment concerns the target JAK2 (Homo sapiens (Human), UniProt O60674). Nature of the experiment: Biochemical JAK kinase assay (LanthaScreen), JAK2. The following applies: for Ki: read-out: JAK2 pKi (converted). In outline: as §1

Sequence of JAK1 (P23458 whole entry): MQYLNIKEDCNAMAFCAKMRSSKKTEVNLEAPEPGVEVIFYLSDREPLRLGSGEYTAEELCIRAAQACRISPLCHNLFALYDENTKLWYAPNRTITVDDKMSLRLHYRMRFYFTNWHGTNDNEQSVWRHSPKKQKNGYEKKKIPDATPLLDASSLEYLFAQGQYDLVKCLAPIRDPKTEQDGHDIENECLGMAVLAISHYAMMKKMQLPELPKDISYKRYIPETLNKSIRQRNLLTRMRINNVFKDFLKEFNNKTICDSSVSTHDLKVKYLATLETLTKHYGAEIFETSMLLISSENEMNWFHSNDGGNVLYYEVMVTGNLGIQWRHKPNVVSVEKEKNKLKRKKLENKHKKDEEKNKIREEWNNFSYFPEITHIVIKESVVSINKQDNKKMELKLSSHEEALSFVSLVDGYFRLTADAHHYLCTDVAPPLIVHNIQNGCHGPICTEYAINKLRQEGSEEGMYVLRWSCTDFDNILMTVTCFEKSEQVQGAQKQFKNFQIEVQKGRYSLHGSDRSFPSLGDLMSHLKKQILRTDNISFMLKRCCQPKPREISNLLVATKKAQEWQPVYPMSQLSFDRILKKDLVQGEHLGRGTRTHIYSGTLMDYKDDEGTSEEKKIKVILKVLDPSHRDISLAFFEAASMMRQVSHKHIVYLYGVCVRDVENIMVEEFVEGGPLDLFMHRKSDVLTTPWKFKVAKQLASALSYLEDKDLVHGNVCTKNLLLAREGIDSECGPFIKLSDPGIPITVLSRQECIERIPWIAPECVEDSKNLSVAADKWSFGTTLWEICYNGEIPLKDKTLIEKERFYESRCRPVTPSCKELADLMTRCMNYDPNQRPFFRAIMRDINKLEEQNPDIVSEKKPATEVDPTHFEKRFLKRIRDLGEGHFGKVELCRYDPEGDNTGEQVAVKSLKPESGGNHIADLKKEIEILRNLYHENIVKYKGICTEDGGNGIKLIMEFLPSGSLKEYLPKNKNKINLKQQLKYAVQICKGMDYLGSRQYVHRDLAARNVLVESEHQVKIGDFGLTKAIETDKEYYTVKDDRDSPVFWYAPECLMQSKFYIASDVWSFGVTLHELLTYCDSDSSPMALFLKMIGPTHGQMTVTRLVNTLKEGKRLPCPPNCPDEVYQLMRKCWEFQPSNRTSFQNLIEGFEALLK
Sequence of JAK2 (O60674 whole entry): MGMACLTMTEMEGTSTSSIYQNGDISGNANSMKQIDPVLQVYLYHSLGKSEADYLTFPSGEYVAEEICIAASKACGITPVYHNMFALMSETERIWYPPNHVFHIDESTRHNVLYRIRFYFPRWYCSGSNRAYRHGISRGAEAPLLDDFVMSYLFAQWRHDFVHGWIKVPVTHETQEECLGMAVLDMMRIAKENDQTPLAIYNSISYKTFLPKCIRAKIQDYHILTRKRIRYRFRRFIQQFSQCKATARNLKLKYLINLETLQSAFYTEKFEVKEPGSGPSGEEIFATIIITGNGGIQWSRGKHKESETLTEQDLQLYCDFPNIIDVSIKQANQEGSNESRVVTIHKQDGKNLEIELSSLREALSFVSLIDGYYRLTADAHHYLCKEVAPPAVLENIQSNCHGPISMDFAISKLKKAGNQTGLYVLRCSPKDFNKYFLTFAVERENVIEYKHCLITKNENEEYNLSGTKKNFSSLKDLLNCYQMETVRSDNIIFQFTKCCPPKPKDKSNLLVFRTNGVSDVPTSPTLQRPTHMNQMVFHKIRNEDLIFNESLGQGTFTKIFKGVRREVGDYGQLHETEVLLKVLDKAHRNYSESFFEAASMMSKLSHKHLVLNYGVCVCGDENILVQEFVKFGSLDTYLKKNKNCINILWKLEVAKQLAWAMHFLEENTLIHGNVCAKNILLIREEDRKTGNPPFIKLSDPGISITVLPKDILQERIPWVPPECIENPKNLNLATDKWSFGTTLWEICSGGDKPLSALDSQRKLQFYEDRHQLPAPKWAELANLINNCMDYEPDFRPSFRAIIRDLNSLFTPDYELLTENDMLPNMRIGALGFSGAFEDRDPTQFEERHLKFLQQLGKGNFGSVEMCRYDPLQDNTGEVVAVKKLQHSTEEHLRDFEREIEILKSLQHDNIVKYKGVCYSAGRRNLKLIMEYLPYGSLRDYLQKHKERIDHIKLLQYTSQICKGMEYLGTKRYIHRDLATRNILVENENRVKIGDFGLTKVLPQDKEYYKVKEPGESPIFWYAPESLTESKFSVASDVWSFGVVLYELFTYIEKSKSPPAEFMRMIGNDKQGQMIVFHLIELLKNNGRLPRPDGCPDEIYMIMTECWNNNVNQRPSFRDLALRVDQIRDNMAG

For the compound `CCc1cc(O)ccc1-c1ccc2c(-c3nc(C4=CCN(C(=O)[C@@H]5CCCN5)CC4)c[nH]3)n[nH]c2c1F` [Compound 16, (S)-6-(2-ethyl-4-hydroxyphenyl)-7-fluoro-3-(4-(1-prolyl-1,2,3,6-tetrahydropyridin-4-yl)-1H-imidazol-2-yl)-1H-indazole], the Ki at TYK2 and on JAK1 was 1 to 10 nM each time. Moreover, the IC50 in experiment [1] is 31.6 to 100 nM.

Regarding `CCc1cc(O)c(F)cc1-c1ccc2c(-c3nc(C4=CCNC4)c[nH]3)n[nH]c2c1F` [Example 18, 4-(3-(4-(2,5-dihydro-1H-pyrrol-3-yl)-1H-imidazol-2-yl)-7-fluoro-1H-indazol-6-yl)-5-ethyl-2-fluorophenol], the Ki on TYK2 was 1 to 10 nM. The “JAK1 pKi” value at JAK1 is listed as “A (A represents a pKi value ≥10 (Ki≤0.1 nM))”. Also, the IC50 in experiment [1] is 3.16 to 10 nM.

For the compound `CCc1cc(O)ccc1-c1ccc2c(-c3nc(C4=CCCN(C5CCOCC5)C4)c[nH]3)n[nH]c2c1F` [Example 69], the Ki on JAK2 was 0.1 to 1 nM; on TYK2, 1 to 10 nM; on JAK1, 0.1 to 1 nM. Also, in experiment [1], the IC50 was 10 to 31.6 nM.

Take `CCc1cc(O)ccc1-c1ccc2c(-c3nc(C4=CCN(C5CCCCC5)CC4)c[nH]3)n[nH]c2c1F` [Example 122]: the Ki at TYK2 is 1 to 10 nM; on JAK1, 0.1 to 1 nM. For the same compound, the IC50 in experiment [1] is 31.6 to 100 nM.

Consider `CCc1cc(O)ccc1-c1ccc2c(-c3nc(C4=CCCN(C5CCCCC5)C4)c[nH]3)n[nH]c2c1F` [Example 126], for which the Ki on TYK2 is 1 to 10 nM; at JAK1 it was 0.1 to 1 nM. Also, in experiment [1], the IC50 is 31.6 to 100 nM.

Take `CCc1cc(O)ccc1-c1ccc2c(-c3nc(C4=CCN(C(=O)[C@@H](N)Cc5ccccc5)CC4)c[nH]3)n[nH]c2c1` [Example 176]: the Ki is 1 to 10 nM on TYK2 and 0.1 to 1 nM at JAK1. Also, the IC50 in experiment [1] was 31.6 to 100 nM.

With `CCc1cc(O)ccc1-c1ccc2c(-c3nc(C4=CCN(C(=O)[C@@H]5CCCN5)CC4)c[nH]3)n[nH]c2c1` [Example 177], the Ki was 1 to 10 nM at TYK2 and 0.1 to 1 nM on JAK1. Also, in experiment [1], the IC50 is 31.6 to 100 nM.

For `CCc1cc(O)ccc1-c1ccc2c(-c3nc(C4=CCN(C(=O)[C@@H](N)Cc5ccccc5)CC4)c[nH]3)n[nH]c2c1F` [Example 179], the Ki was 10 to 100 nM on TYK2 and 1 to 10 nM on JAK1. In experiment [1], the IC50 is 100 to 316 nM.

In the case of `CCc1cc(O)ccc1-c1ccc2c(-c3nc(C4=CCN(S(=O)(=O)C5CNC5)C4)c[nH]3)n[nH]c2c1F` [Example 180], the Ki on TYK2 was 10 to 100 nM; at JAK1, 1 to 10 nM. Further, in experiment [1], the IC50 is 31.6 to 100 nM.

Turning to `CCc1cc(O)ccc1-c1ccc2c(-c3nc(C4=CCN(C(=O)[C@@H]5CCCN5)C4)c[nH]3)n[nH]c2c1F` [Example 181], the Ki is 1 to 10 nM on TYK2 and 0.1 to 1 nM at JAK1. The IC50 in experiment [1] is 31.6 to 100 nM.

In the case of `CCc1cc(O)ccc1-c1ccc2c(-c3nc(C4=CCN(C5CCN(C)CC5)CC4)c[nH]3)n[nH]c2c1` [Example 182], the Ki on JAK2 is 0.1 to 1 nM; at TYK2 it was 1 to 10 nM. Moreover, on JAK1, the “JAK1 pKi” value was “A (A represents a pKi value ≥10 (Ki≤0.1 nM))”. Moreover, the IC50 in experiment [1] is 10 to 31.6 nM.

For `CCc1cc(O)ccc1-c1ccc2c(-c3nc(C4=CCN(CCNC)CC4)c[nH]3)n[nH]c2c1` [Example 183], the figures for the Ki on TYK2 and at JAK1 were 1 to 10 nM and 0.1 to 1 nM, respectively. Further, the IC50 in experiment [1] was 31.6 to 100 nM.

In the case of `CCc1cc(O)ccc1-c1ccc2c(-c3nc(C4=CCN(CCN)CC4)c[nH]3)n[nH]c2c1F` [Example 187], the Ki is 0.1 to 1 nM on JAK2, 1 to 10 nM on TYK2 and 0.1 to 1 nM at JAK1. In experiment [1], the IC50 is 31.6 to 100 nM.

For `CCc1cc(O)ccc1-c1ccc2c(-c3nc(C4=CCN(CCNC)CC4)c[nH]3)n[nH]c2c1F` [Example 188], the results for the Ki at TYK2 and at JAK1 were 1 to 10 nM and 0.1 to 1 nM, respectively. Also, the IC50 in experiment [1] is 31.6 to 100 nM.

On to `CCc1cc(O)ccc1-c1ccc2c(-c3nc(C4=CCCN(C[C@@H]5COCCN5)C4)c[nH]3)n[nH]c2c1` [Example 193], for which the Ki on JAK2 is 0.1 to 1 nM; at TYK2, 1 to 10 nM; at JAK1, 0.1 to 1 nM. In addition, in experiment [1], the IC50 is 31.6 to 100 nM.

On to `CCc1cc(O)ccc1-c1ccc2c(-c3nc(C4=CCCN(C[C@H]5COCCN5)C4)c[nH]3)n[nH]c2c1F` [Example 197], for which the Ki was 1 to 10 nM at TYK2 and 0.1 to 1 nM at JAK1. Further, the IC50 in experiment [1] is 31.6 to 100 nM.

Consider `CCc1cc(O)ccc1-c1ccc2c(-c3nc(C4=CCCN(CCN5CCOCC5)C4)c[nH]3)n[nH]c2c1F` [Example 198], for which the Ki is 0.1 to 1 nM at JAK2, 1 to 10 nM at TYK2 and 0.1 to 1 nM at JAK1. For the same compound, the IC50 in experiment [1] is 10 to 31.6 nM.

In the case of `CCc1cc(O)ccc1-c1ccc2c(-c3nc(C4=CCN(CCN)C4)c[nH]3)n[nH]c2c1F` [Example 203], the Ki at TYK2 was 1 to 10 nM; at JAK1, 0.1 to 1 nM. In addition, the IC50 in experiment [1] was 31.6 to 100 nM.

For `CCc1cc(O)ccc1-c1ccc2c(-c3nc(C4=CCN(CCNC)C4)c[nH]3)n[nH]c2c1F` [Example 204], the Ki on TYK2 was 1 to 10 nM; at JAK1, 0.1 to 1 nM. In experiment [1], the IC50 was 31.6 to 100 nM.

Take `CCc1cc(O)ccc1-c1ccc2c(-c3nc(C4=CCN(C[C@@H]5COCCN5C)CC4)c[nH]3)n[nH]c2c1F` [Example 210]: the “JAK2 pKi” value on JAK2 is “A (A represents a pKi value ≥10 (Ki≤0.1 nM))”. The Ki at TYK2 was 1 to 10 nM; at JAK1 it was 0.1 to 1 nM. The IC50 in experiment [1] is 10 to 31.6 nM.

Regarding `CCc1cc(O)ccc1-c1ccc2c(-c3nc(C4=CCN(C5CCCNC5)CC4)c[nH]3)n[nH]c2c1F` (stereo not shown) [Example 211], the Ki at TYK2 was 1 to 10 nM; on JAK1, 0.1 to 1 nM. The IC50 in experiment [1] was 31.6 to 100 nM.

Regarding `CCc1cc(O)ccc1-c1ccc2c(-c3nc(C4=CCCN(C5CCCNC5)C4)c[nH]3)n[nH]c2c1F` (stereo not shown) [Example 216], the Ki at JAK2 was 0.1 to 1 nM; on TYK2, 1 to 10 nM; on JAK1, 1 to 10 nM. Besides, the IC50 in experiment [1] is 100 to 316 nM.

As to `CCc1cc(O)ccc1-c1ccc2c(-c3nc(C4=CCN(C[C@@H]5COCCN5C)C4)c[nH]3)n[nH]c2c1F` [Example 221], the Ki on TYK2 and at JAK1 was 0.1 to 1 nM in each case. Further, the IC50 in experiment [1] was 10 to 31.6 nM.

Take `CCc1cc(O)ccc1-c1ccc2c(-c3nc(C4=CCN(C5CCCNC5)C4)c[nH]3)n[nH]c2c1F` (stereo not shown) [Example 222]: the values for the Ki on TYK2 and on JAK1 were 1 to 10 nM and 0.1 to 1 nM, respectively. Further, the IC50 in experiment [1] is 10 to 31.6 nM.

Take `CCc1cc(O)ccc1-c1ccc2c(-c3nc(C4=CC(C)(C)NC(C)(C)C4)c[nH]3)n[nH]c2c1` [Example 226]: the values for the Ki on TYK2 and at JAK1 were 1 to 10 nM and 0.1 to 1 nM, respectively. The IC50 in experiment [1] was 10 to 31.6 nM.

Regarding `CCc1cc(O)ccc1-c1ccc2c(-c3nc(C4=CCNCC4)c(C)[nH]3)n[nH]c2c1` [Example 291], on TYK2, the Ki was 0.1 to 1 nM. Also, on JAK1, the “JAK1 pKi” value was “A (A represents a pKi value ≥10 (Ki≤0.1 nM))”. Moreover, the IC50 in experiment [1] is 3.16 to 10 nM.

For the compound `CCc1cc(O)ccc1-c1ccc2c(-c3nc(C4=CCN(C[C@@H]5COCCN5C(=O)OC(C)(C)C)CC4)c[nH]3)n[nH]c2c1` [Example 383], the figures for the Ki on TYK2 and at JAK1 were 10 to 100 nM and 0.1 to 1 nM, respectively. The IC50 in experiment [1] is 31.6 to 100 nM.
